Columns and labels:
[1] = molecular target: T1, Human GPR40 (Homo sapiens, UniProt O14842); assay: FLIPR assay: agonist-induced calcium mobilization in GPR40/CHO NFAT BLA cells; assay type: cell-based; design: expressed in transfected cells; host or cells: CHO cells stably expressing NFAT BLA (beta-lactamase)
From the text: (§1) Human and mouse GPR40 stable cell-lines were generated in CHO cells stably expressing NFAT BLA (Beta-lactamase). A human GPR40 stable cell-line was generated in HEK cells stably expressing the aequorin expressing reporter. The expression plasmids were transfected using lipofectamine, LIFE TECHNOLOGIES (Carlsbad, Calif.), following manufacturer's instructions. Stable cell-lines were generated following drug selection.
FLIPR (Fluorimetric Imaging Plate Reader, Molecular Devices) assays were performed to measure agonist-induced calcium mobilization of the stable clones. For the FLIPR assay, one day before assay, GPR40/CHO NFAT BLA cells were seeded into black-wall-clear-bottom 384-well plates (Costar) at 1.4×10e4 cells/20 μL medium/well. The cells were incubated with 20 μl/well of the assay buffer (HBSS, 0.1% BSA, 20 mM HEPES, 2.5 mM probenecid, pH 7.4) containing 8 μM fluo-4, AM, 0.08% pluronic acid at room temperature for 100 minutes. Fluorescence output was measured using FLIPR. Compounds were dissolved in DMSO and diluted to desired concentrations with assay buffer. 13.3 μL/well of compound solution was added. The activities of the compounds in the examples have EC50 (effective concentration of compound to afford 50% of the maximum observed fluorescence) values listed in Table I.

[2] = molecular target: T1, Human GPR40; assay: Inositol phosphate turnover (IP1) assay in HEK cells stably expressing human GPR40; assay type: cell-based; design: expressed in transfected cells; details: HEK cells stably expressing human GPR40, 3H-inositol labeling, 60 min compound incubation
Experimental: as §1
The assay is performed in a 96-well format. HEK cells stably expressing human GPR40 are plated to be 60-80% confluent within 72 h. After 72 h, the plates are aspirated and the cells washed with inositol-free DMEM (ICN). The wash media is replaced with 150 μL of 3H-inositol labeling media (inositol-free media containing 0.4% human albumin or 0.4% mouse albumin, 1× pen/strep antibiotics, glutamine, 25 mM HEPES to which is added 3H-myo-inositol NEN #NET114A 1 mCi/mL, 25 Ci/mmol diluted 1:150 in loading media with a final specific radioactivity of 1 μCi/150 μL). Alternatively, the human and mouse albumin can be added after the overnight labeling step before the addition of LiCl.
The assay is typically run the next day after 18 h labeling. On the day of the assay, 5 μL of 300 mM LiCl is added to all wells and incubated at 37 degrees for 20 min. 0.75 μL of 200× compounds are added and incubated with the cells for 60 min at 37 degrees. The media is then aspirated off and the assay terminated with the addition of 60 μL 10 mM formic acid. The cells are lysed for 60 min at room temperature. 15-30 μL of lysate is mixed with 70 μL/1 mg YSi SPA beads AMERSHAM (United Kingdom) in clear bottom Isoplates. The plates are shaken for 2 h at room temperature. Beads are allowed to settle and the plates are counted in the Wallac MICROBETA instrument. The activities of the compounds in the examples have EC50 (effective concentration of compound to afford 50% of the maximum observed […]) values listed in Table I.

T1 sequence (O14842 whole entry): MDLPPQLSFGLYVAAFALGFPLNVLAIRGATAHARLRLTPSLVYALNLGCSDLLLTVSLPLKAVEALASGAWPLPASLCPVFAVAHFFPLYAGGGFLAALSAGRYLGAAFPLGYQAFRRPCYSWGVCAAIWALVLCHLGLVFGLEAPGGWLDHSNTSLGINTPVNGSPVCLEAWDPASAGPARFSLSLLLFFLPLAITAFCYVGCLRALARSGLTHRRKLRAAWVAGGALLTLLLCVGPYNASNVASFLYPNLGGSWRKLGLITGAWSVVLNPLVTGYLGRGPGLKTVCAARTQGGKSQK

| SMILES | EC50 [1] [nM] | EC50 [2] [nM] |
| --- | --- | --- |
| Cc1cc(OC2CCS(=O)(=O)CC2)nc(C)c1-c1ccc(F)c(COc2ccc3c(c2)C[C@H]2[C@H](C(=O)O)[C@@H]32)c1 [Example 9, 4-{5-[6-(1,1-Dioxo-hexahydro-l16-thiopyran-4-yloxy)-2,4-dimethyl-pyridin-3-yl]-2-fluoro-benzyloxy}-1,1a,6,6a-tetrahydro-cyclopropa[a]indene-1-carboxylic acid] | 99 | – |
| Cc1nc(OCCCCn2nccn2)ccc1-c1ccc(F)c(COc2ccc3c(c2)CC2C(C(=O)O)C32)c1 (stereo not drawn) [Example 29, 4-((5-(6-(4-(2H-1,2,3-triazol-2-yl)butoxy)-2-methyl-pyridin-3-yl)-2-fluorobenzyl)oxy)-1,1a,6,6a-tetrahydrocyclo-propa[a]indene-1-carboxylic acid] | 16.1 | 26.5 |
| Cc1nc(N2CCC(S(C)(=O)=O)CC2)ccc1-c1cccc(COc2ccc3c(c2)C[C@H]2[C@H](C(=O)O)[C@@H]32)c1 [Example 3, (1S,1aS,6aR)-4-((3-(2-Methyl-6-(4-(methylsulfonyl)piperidin-1-yl)pyridin-3-yl)benzyl)oxy)-1,1a,6,6a-tetrahydrocyclopropa[a]indene-1-carboxylic acid] | 59.9 | – |
| Cc1cc(NCCCS(C)(=O)=O)ncc1-c1cccc(COc2ccc3c(c2)C[C@H]2[C@H](C(=O)O)[C@@H]32)c1 [Example 15, 4-{3-[6-(3-Methanesulfonyl-propylamino)-4-methyl-pyridin-3-yl]-benzyloxy}-1,1a,6,6a-tetrahydro-cyclopropa[a]indene-1-carboxylic acid] | 317 | – |
| Cc1cc(OC2CCS(=O)(=O)CC2)nc(C)c1-c1cccc(COc2ccc3c(c2)C[C@H]2[C@H](C(=O)O)[C@@H]32)c1 [Example 13, 4-{3-[6-(1,1-Dioxo-hexahydro-l16-thiopyran-4-yloxy)-2,4-dimethyl-pyridin-3-yl]-benzyloxy}-1,1a,6,6a-tetrahydro-cyclopropa[a]indene-1-carboxylic acid] | 102 | – |
| Cc1nc(OC2CCS(=O)(=O)CC2)ccc1-c1cccc(COc2ccc3c(c2)C[C@H]2[C@H](C(=O)O)[C@@H]32)c1C [Example 17, 4-{3-[6-(1,1-Dioxo-hexahydro-l16-thiopyran-4-yloxy)-2-methyl-pyridin-3-yl]-2-methyl-benzyloxy}-1,1a,6,6a-tetrahydro-cyclopropa[a]indene-1-carboxylic acid] | 252 | – |
| Cc1cc(OCCCS(C)(=O)=O)ncc1-c1cccc(COc2ccc3c(c2)C[C@H]2[C@H](C(=O)O)[C@@H]32)c1C [Example 8, 4-{3-[6-(3-Methanesulfonyl-propoxy)-4-methyl-pyridin-3-yl]-2-methyl-benzyloxy}-1,1a,6,6a-tetrahydro-cyclopropa[a]indene-1-carboxylic acid] | 232 | – |
| Cc1cc(OC2CCS(=O)(=O)CC2)ncc1-c1ccc(F)c(COc2ccc3c(c2)C[C@H]2[C@H](C(=O)O)[C@@H]32)c1 [Example 10, 4-{5-[6-(1,1-Dioxo-hexahydro-l16-thiopyran-4-yloxy)-4-methyl-pyridin-3-yl]-2-fluoro-benzyloxy}-1,1a,6,6a-tetrahydro-cyclopropa[a]indene-1-carboxylic acid] | 93.1 | – |
| Cc1cc(NCCCS(C)(=O)=O)ncc1-c1cccc(COc2ccc3c(c2)C[C@H]2[C@H](C(=O)O)[C@@H]32)c1C [Example 16, 4-{3-[6-(3-Methanesulfonyl-propylamino)-4-methyl-pyridin-3-yl]-2-methyl-benzyloxy}-1,1a,6,6a-tetrahydro-cyclopropa[a]indene-1-carboxylic acid] | 4280 | – |
| Cc1nc(NCCCS(C)(=O)=O)ccc1-c1cccc(COc2ccc3c(c2)C[C@H]2[C@H](C(=O)O)[C@@H]32)c1 [Example 12, 4-{3-[6-(3-Methanesulfonyl-propylamino)-2-methyl-pyridin-3-yl]-benzyloxy}-1,1a,6,6a-tetrahydro-cyclopropa[a]indene-1-carboxylic acid] | 123 | – |
| CS(=O)(=O)CCCOc1ccc(-c2cccc(COc3ccc4c(c3)C[C@H]3[C@H](C(=O)O)[C@@H]43)c2)c(CO)n1 [Example 18, 4-{3-[2-Hydroxymethyl-6-(3-methanesulfonyl-propoxy)-pyridin-3-yl]-benzyloxy}-1,1a,6,6a-tetrahydro-cyclopropa[a]indene-1-carboxylic acid] | 206 | – |
| Cc1cc(OCCCS(C)(=O)=O)nc(C)c1-c1cccc(COc2ccc3c(c2)C[C@H]2[C@H](C(=O)O)[C@@H]32)c1C [Example 7, 4-{3-[6-(3-Methane-sulfonyl-propoxy)-2,4-dimethyl-pyridin-3-yl]-2-methyl-benzyloxy}-1,1a,6,6a-tetrahydro-cyclopropa[a]indene-1-carboxylic acid] | 98 | – |

Continued, values first:

| EC50 [1] [nM] | EC50 [2] [nM] | SMILES |
| --- | --- | --- |
| 77.8 | 1390 | Cc1nc(OC2CCS(=O)(=O)CC2)ccc1-c1ccc(F)c(C(C)Oc2ccc3c(c2)C[C@H]2[C@H](C(=O)O)[C@@H]32)c1 (stereo partly drawn) [Example 35, (1S,1aS,6aR)-4-(1-(5-(6-((1,1-dioxidotetrahydro-2H-thiopyran-4-yl)oxy)-2-methyl-pyridin-3-yl)-2-fluorophenyl)ethoxy)-1,1a,6,6a-tetrahydrocyclo-propa[a]indene-1-carboxylic acid] |
| 67.9 | 39 | Cc1nc(OC[C@@H]2CCCC[C@H]2S(C)(=O)=O)ccc1-c1ccc(F)c(COc2ccc3c(c2)C[C@H]2[C@H](C(=O)O)[C@@H]32)c1 [Example 25, (1S,1aS,6aR)-4-((2-fluoro-5-(2-methyl-6-(((1S,2R)-2-(methylsulfonyl)cyclohexyl)methoxy)pyridin-3-yl)benzyl)oxy)-1,1a,6,6a-tetrahydrocyclopropa[a]indene-1-carboxylic acid] |
| 30.9 | 14 | Cc1nc(O[C@@H]2CO[C@H]3[C@@H]2OC[C@@H]3O)ccc1-c1ccc(F)c(COc2ccc3c(c2)C[C@H]2[C@H](C(=O)O)[C@@H]32)c1 [Example 31, (1S,1aS,6aR)-4-((2-fluoro-5-(6-(((3R,3aR,6S,6aR)-6-hydroxyhexahydrofuro[3,2-b]furan-3-yl)oxy)-2-methylpyridin-3-yl)benzyl)oxy)-1,1a,6,6a-tetrahydrocyclopropa[a]indene-1-carboxylic acid] |
| 23.2 | 221 | Cc1nc(N2CCC(C#N)(c3ccccc3)CC2)nc(C)c1-c1ccc(F)c(COc2ccc3c(c2)C[C@H]2[C@H](C(=O)O)[C@@H]32)c1 [Example 44, (1S,1aS,6aR)-4-((5-(2-(4-cyano-4-phenylpiperidin-1-yl)-4,6-dimethylpyrimidin-5-yl)-2-fluorobenzyl)oxy)-1,1a,6,6a-tetrahydrocyclopropa[a]indene-1-carboxylic acid] |
| 58.9 | – | Cc1cc(OCCCS(C)(=O)=O)ncc1-c1ccc(F)c(COc2ccc3c(c2)C[C@H]2[C@H](C(=O)O)[C@@H]32)c1F [Example 22, 4-(2,6-difluoro-3-[6-(3-methanesulfonyl-propoxy)-4-methyl-pyridin-3-yl]-benzyloxy)-1,1a,6,6a-tetrahydro-cyclopropa[a]indene-1-carboxylic acid] |
| 5.5 | – | Cc1cc(OCCCS(C)(=O)=O)ncc1-c1ccc(F)c(COc2ccc3c(c2)C[C@H]2[C@H](C(=O)O)[C@@H]32)c1 [Example 19, (1S,1aS,6aR)-4-[(2-fluoro-5-{4-methyl-6-[3-(methylsulfonyl)propoxy]pyridin-3-yl}benzyl)oxy]-1,1a,6,6a-tetrahydrocyclopropa[a]indene-1-carboxylic acid] |
| 47.4 | – | Cc1cc(OCCCS(C)(=O)=O)nc(C)c1-c1ccc(F)c(COc2ccc3c(c2)C[C@H]2[C@H](C(=O)O)[C@@H]32)c1F [Example 21, 4-(2,6-difluoro-3-[6-(3-methanesulfonyl-propoxy)-2,4-dimethyl-pyridin-3-yl]-benzyloxy)-1,1a,6,6a-tetrahydro-cyclopropa[a]indene-1-carboxylic acid] |

— US9834563B2 (Merck Sharp & Dohme Corp., priority 2013, dated 2017)
